Each structure is given as a SMILES string.

One may read the IC50 as the concentration that gives 50% inhibition. A higher IC50 goes with a need for much substance.

Assay [1] concerns the target T1, Caspase-1 (Mus musculus, UniProt P29452).
T1 sequence (P29452 whole entry): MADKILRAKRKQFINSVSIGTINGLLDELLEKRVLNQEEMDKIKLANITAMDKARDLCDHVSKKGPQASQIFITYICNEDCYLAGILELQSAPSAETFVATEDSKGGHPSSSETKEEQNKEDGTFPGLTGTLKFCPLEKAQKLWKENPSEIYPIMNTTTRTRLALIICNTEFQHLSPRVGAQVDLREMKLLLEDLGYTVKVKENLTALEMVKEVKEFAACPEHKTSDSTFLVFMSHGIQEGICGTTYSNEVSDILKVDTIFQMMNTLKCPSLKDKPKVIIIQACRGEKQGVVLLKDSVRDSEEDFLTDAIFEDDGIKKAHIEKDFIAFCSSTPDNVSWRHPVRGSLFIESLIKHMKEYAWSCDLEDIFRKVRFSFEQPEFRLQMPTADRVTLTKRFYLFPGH
Description: Inhibitory activity against Caspase-1 using Ac-TyrValAlaAsp-amc as substrate.

The target of assay [2] is T2, Caspase-3 (Homo sapiens, UniProt P42574).
T2 sequence (P42574 whole entry): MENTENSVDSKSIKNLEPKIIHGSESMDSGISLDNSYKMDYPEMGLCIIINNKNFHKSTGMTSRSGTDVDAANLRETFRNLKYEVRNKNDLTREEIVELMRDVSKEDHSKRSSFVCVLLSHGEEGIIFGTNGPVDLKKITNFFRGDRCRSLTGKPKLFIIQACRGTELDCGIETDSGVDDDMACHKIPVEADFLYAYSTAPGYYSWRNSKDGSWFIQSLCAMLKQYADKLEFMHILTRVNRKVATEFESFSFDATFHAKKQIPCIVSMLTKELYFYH
Description: Inhibitory activity against human Caspase-3 using Ac-AspGluValAsp as substrate.

Consider `CC(C)[C@H](NC(=O)OCc1ccccc1)C(=O)N1CCCC[C@H]1C(=O)N[C@H]1CC(=O)OC1O` (stereo partly drawn), for which half-maximal inhibition in assay [1] (IC50) was put at 95 nM.

Turning to `O=C(CN1CCC[C@H](NC(=O)OCc2ccccc2)C1=O)N[C@H]1CC(=O)OC1O` (stereo partly drawn), the IC50 in assay [2] was more than 100000 nM; in assay [1], 37000 nM.

With `CC(=O)N[C@@H](CC(=O)O)C(=O)N[C@H]1CCC[C@H]2SC[C@@H](C(=O)N[C@H]3CC(=O)OC3O)N2C1=O` (stereo partly drawn), the IC50 in assay [2] was 18 nM; in assay [1], 10400 nM.

`CC(C)[C@H](NC(=O)OCc1ccccc1)C(=O)N[C@@H](C)C(=O)N[C@H]1CC(=O)OC1O` (stereo partly drawn) came in with an IC50 in assay [1] of 64 nM.

In assay [1], `CC(=O)N[C@@H](CC(=O)O)C(=O)N[C@H](C(=O)N[C@@H](C)C(=O)N[C@H]1CC(=O)OC1O)C(C)C` (stereo partly drawn) yielded a concentration for half-maximal inhibition (IC50) of 523 nM.

In turn, `CC(=O)N[C@@H](Cc1ccc(O)cc1)C(=O)N[C@H](C(=O)N[C@@H](C)C(=O)N[C@H]1CC(=O)OC1O)C(C)C` (stereo partly drawn) showed an IC50 in assay [1] of 4.6 nM.

Compound `O=C(CN1CCCC[C@H](NC(=O)OCc2ccccc2)C1=O)N[C@H]1CC(=O)OC1O` (stereo partly drawn) showed an IC50 in assay [1] of 1680 nM.

Turning to `O=C(CN1CC[C@H](NC(=O)OCc2ccccc2)C1=O)N[C@H]1CC(=O)OC1O` (stereo partly drawn), the IC50 in assay [2] and in assay [1] was more than 10000 nM throughout.

`O=C1C[C@H](NC(=O)[C@@H]2CCC[C@@H]3CCC[C@H](NC(=O)OCc4ccccc4)C(=O)N32)C(O)O1` (stereo partly drawn): the IC50 is more than 10000 nM in assay [2] and 36 nM in assay [1].

As to `O=C1C[C@H](NC(=O)[C@@H]2CS[C@H]3CC[C@H](NC(=O)OCc4ccccc4)C(=O)N32)C(O)O1` (stereo partly drawn), in assay [1], the midpoint of inhibition, the IC50, lay at 4800 nM.

For `O=C1C[C@H](NC(=O)[C@@H]2CS[C@@H]3CCC[C@H](NC(=O)OCc4ccccc4)C(=O)N32)C(O)O1` (stereo partly drawn), the figures for the IC50 in assay [2] and in assay [1] were more than 10000 nM and 159 nM, respectively.

With `CC(C)[C@H](NC(=O)OCc1ccccc1)C(=O)N1CCC[C@H]1C(=O)N[C@H]1CC(=O)OC1O` (stereo partly drawn), in assay [1], the IC50 is 87 nM.

For the compound `C[C@@H](C(=O)N[C@H]1CC(=O)OC1O)N1CC[C@H](NC(=O)OCc2ccccc2)C1=O` (stereo partly drawn), the values for the IC50 in assay [2] and in assay [1] were more than 100000 nM and 3700 nM, respectively.

On to `C[C@@H](C(=O)N[C@H]1CC(=O)OC1O)N1CCCC[C@H](NC(=O)OCc2ccccc2)C1=O` (stereo partly drawn), for which the IC50 is more than 10000 nM in assay [2] and 186 nM in assay [1].

Consider `CC(=O)N[C@@H](CC(=O)O)C(=O)N[C@@H](CCC(=O)O)C(=O)N[C@H](C(=O)N[C@H]1CC(=O)OC1O)C(C)C` (stereo partly drawn), for which the IC50 in assay [2] is 1.2 nM; in assay [1] it was 71 nM.

Source of the values: ChEMBL document CHEMBL1131550, “Conformationally constrained inhibitors of caspase-1 (interleukin-1 beta converting enzyme) and of the human CED-3 homologue caspase-3 (CPP32, apopain)” (Bioorg Med Chem Lett, 1998).
